# Where two headings read alike, the source gives them in different places.
# Columns and labels:
# [1] = Plasma stability by LC-MS; assay type: in vitro ADME; settings: mouse plasma
# Procedure: The stability of select compounds of the application in plasma was assessed quantitatively through LC-MS and the results are shown in Table 6.
# MV-4-11 = experiment: Cytotoxicity in cell lines; assay type: cell-based; settings: read-out: IC50 MV-411
# Procedure: (§1) The cytotoxicity of exemplary compounds of the application was tested in multiple cell lines including MV-4-11, MOLM-13, MCF-7, MRC9, K562 and MM.1S. The therapeutic index was evaluated by determining the toxicity of the exemplary compounds in healthy cell lines including fibroblasts and HUVEC.
# MOLM-13 = experiment: Cytotoxicity in cell lines; assay type: cell-based; settings: Homo sapiens, MOLM-13, read-out: IC50 MOLM-13
# Procedure: as §1
# HDAC6 = molecular target: T1, HDAC6 (Homo sapiens, UniProt Q9UBN7); experiment: in vitro activity-based HDAC assay; assay type: biochemical; settings: ranges given; read-out: IC50 for HDAC6
# T1 sequence (Q9UBN7 1-1215): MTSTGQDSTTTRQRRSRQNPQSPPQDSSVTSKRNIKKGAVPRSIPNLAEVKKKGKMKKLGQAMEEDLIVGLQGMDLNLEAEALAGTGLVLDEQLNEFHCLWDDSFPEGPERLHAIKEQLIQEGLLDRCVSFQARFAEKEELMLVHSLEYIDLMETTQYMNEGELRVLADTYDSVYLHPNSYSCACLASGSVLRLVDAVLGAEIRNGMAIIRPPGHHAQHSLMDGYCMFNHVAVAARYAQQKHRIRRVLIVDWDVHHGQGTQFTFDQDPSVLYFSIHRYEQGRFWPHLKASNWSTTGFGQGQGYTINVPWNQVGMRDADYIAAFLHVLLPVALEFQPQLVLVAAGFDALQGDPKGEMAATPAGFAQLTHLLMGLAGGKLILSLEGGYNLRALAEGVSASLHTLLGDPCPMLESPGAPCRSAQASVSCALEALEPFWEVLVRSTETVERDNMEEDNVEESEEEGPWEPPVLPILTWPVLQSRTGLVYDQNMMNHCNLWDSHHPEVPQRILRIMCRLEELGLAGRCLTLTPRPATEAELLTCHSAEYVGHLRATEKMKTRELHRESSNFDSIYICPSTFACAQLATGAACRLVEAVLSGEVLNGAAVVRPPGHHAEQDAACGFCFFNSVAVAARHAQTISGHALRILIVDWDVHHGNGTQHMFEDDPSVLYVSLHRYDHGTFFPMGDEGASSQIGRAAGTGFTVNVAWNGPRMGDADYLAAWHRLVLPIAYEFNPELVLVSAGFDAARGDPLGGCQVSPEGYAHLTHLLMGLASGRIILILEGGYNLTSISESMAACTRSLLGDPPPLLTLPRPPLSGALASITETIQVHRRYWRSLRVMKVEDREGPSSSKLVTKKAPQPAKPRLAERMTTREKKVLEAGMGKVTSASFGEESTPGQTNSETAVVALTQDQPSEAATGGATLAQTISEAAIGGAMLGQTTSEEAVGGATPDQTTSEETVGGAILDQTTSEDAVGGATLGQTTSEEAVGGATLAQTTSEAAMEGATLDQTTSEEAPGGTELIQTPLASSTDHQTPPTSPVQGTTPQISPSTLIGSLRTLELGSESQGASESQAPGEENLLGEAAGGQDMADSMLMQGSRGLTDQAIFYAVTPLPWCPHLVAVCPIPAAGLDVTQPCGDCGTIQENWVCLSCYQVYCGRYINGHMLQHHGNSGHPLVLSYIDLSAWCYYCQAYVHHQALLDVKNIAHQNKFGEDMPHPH
# Procedure: The exemplary compounds of Formula I and structurally related compounds were synthesized to assess their structure-activity relationship. […] The IC50 values for each exemplary compound were used to calculate the selectivity of the exemplary compounds for Formula I to HDAC6. The selectivity of each exemplary compound for HDAC6 was determined from examining the potency of HDAC6 in relation to the highest binding affinity of the other HDAC isoforms tested.
compound,measurement,setting,value
O=C(/C=C/c1cccc(S(=O)(=O)Nc2ccccc2)c1)NO [Belinostat],half-life,[1],2.35 h
same,Remaining Percentage (%) 0 min,[1],100%
same,Remaining Percentage (%) 15 min,[1],88.6%
same,Remaining Percentage (%) 30 min,[1],78.8%
same,Remaining Percentage (%) 45 min,[1],75.0%
same,Remaining Percentage (%) 60 min,[1],72.1%
same,Remaining Percentage (%) 120 min,[1],53.8%
"CN(Cc1ccc(C(=O)NO)cc1)S(=O)(=O)c1c(F)c(F)c(F)c(F)c1F [Compound I-2, N-hydroxy-4-((2,3,4,5,6-pentafluoro-N-methylphenylsulfonamido)methyl)benzamide]",IC50,"MV-4-11; Homo sapiens, MV4-11, Table 4",1040 nM
"O=C(NO)c1ccc(CN(Cc2ccc(F)cc2)S(=O)(=O)c2c(F)c(F)c(F)c(F)c2F)cc1 [Compound I-9, N-hydroxy-4-((2,3,4,5,6-pentafluoro-N-(4-fluorobenzyl)phenylsulfonamido)methyl)benzamide]",IC50,MOLM-13; Table 4,5200 nM
"O=C(NO)c1ccc(CN(Cc2ccc(C(F)(F)F)cc2)S(=O)(=O)c2c(F)c(F)c(F)c(F)c2F)cc1 [Compound I-10, N-hydroxy-4-((2,3,4,5,6-pentafluoro-N-(4-(trifluoromethyl)benzyl)phenylsulfonamido)methyl)benzamide]",IC50,MOLM-13; Table 4,9100 nM
"O=C(NO)c1ccc(CN(Cc2cc(F)c(F)c(F)c2)S(=O)(=O)c2c(F)c(F)c(F)c(F)c2F)cc1 [Compound I-11, N-hydroxy-4-((2,3,4,5,6-pentafluoro-N-(3,4,5-trifluorobenzyl)phenylsulfonamido)methyl)benzamide]",IC50,MOLM-13; Table 4,3500 nM
"O=C(NO)c1ccc(CN(C2CC2)S(=O)(=O)c2c(F)c(F)cc(F)c2F)cc1 [Compound I-14, 4-((N-cyclopropyl-2,3,5,6-tetrafluorophenylsulfonamido)methyl)-N-hydroxybenzamide]",IC50,"MV-4-11; Homo sapiens, MV4-11, Table 4",5700 nM
"O=C(NO)c1ccc(CN(Cc2ccccc2)S(=O)(=O)c2cc(F)c(F)c(F)c2F)cc1 [Compound I-16, 4-((N-benzyl-2,3,4,5-tetrafluorophenylsulfonamido)methyl)-N-hydroxybenzamide]",IC50,"MV-4-11; Homo sapiens, MV4-11, Table 4",190 nM
"O=C(NO)c1ccc(CN(Cc2ccccn2)S(=O)(=O)c2cc(F)c(F)c(F)c2F)cc1 [Compound I-20, N-hydroxy-4-((2,3,4,5-tetrafluoro-N-(pyridin-2-ylmethyl)phenylsulfonamido)methyl)benzamide]",IC50,"MV-4-11; Homo sapiens, MV4-11, Table 4",480 nM
"Cc1ccc(CN(Cc2ccc(C(=O)NO)cc2)S(=O)(=O)c2cc(F)c(F)c(F)c2F)c(F)c1 [Compound I-26, N-hydroxy-4-((2,3,4,5-tetrafluoro-N-(2-fluoro-4-methylbenzyl)phenylsulfonamido)methyl)benzamide]",IC50,"MV-4-11; Homo sapiens, MV4-11, Table 4",1870 nM
"O=C(NO)c1ccc(CN(Cc2ccc(F)nc2)S(=O)(=O)c2cc(F)c(F)c(F)c2F)cc1 [Compound I-27, N-hydroxy-4-((2,3,4,5-tetrafluoro-N-((6-fluoropyridin-3-yl)methyl)phenylsulfonamido)methyl)benzamide]",IC50,"MV-4-11; Homo sapiens, MV4-11, Table 4",843 nM
"O=C(NO)c1ccc(CN(Cc2ccncc2F)S(=O)(=O)c2cc(F)c(F)c(F)c2F)cc1 [Compound I-28, N-hydroxy-4-((2,3,4,5-tetrafluoro-N-((3-fluoropyridin-4-yl)methyl)phenylsulfonamido)methyl)benzamide]",IC50,"MV-4-11; Homo sapiens, MV4-11, Table 4",596 nM
same,IC50,MOLM-13; Table 4,663 nM
"O=C(NO)c1ccc(CN(C2CC2)S(=O)(=O)c2c(F)cc(F)c(Cl)c2F)cc1 [Compound I-42, 4-((3-chloro-N-cyclopropyl-2,4,6-trifluorophenylsulfonamido)methyl)-N-hydroxybenzamide]",IC50,"MV-4-11; Homo sapiens, MV4-11, Table 4",741 nM
"O=C(/C=C/c1ccc(CN(Cc2ccc(F)cc2)S(=O)(=O)c2c(F)c(F)c(F)c(F)c2F)cc1)NO [Compound I-59, (E)-N-hydroxy-3-(4-((2,3,4,5,6-pentafluoro-N-(4-fluorobenzyl)phenylsulfonamido)methyl)phenyl)acrylamide]",IC50,"MV-4-11; Homo sapiens, MV4-11, Table 5",590 nM
same,IC50,HDAC6,10 to 30 nM
"CC(c1ccc(F)cc1)N(Cc1ccc(/C=C/C(=O)NO)cc1)S(=O)(=O)c1c(F)c(F)c(F)c(F)c1F (stereo not shown) [Compound I-60, (E)-N-hydroxy-3-(4-((2,3,4,5,6-pentafluoro-N-(1-(4-fluorophenyl)ethyl)phenylsulfonamido)methyl)phenyl)acrylamide]",IC50,"MV-4-11; Homo sapiens, MV4-11, Table 5",470 nM
same,IC50,HDAC6,10 to 30 nM
"COc1ccc(CN(Cc2ccc(/C=C/C(=O)NO)cc2)S(=O)(=O)c2c(F)c(F)c(F)c(F)c2F)cc1 [Compound I-61, (E)-N-hydroxy-3-(4-((2,3,4,5,6-pentafluoro-N-(4-methoxybenzyl)phenylsulfonamido)methyl)phenyl)acrylamide]",IC50,HDAC6,30 to 50 nM
"O=C(/C=C/c1ccc(CN(C2CCCC2)S(=O)(=O)c2cc(F)c(F)c(F)c2F)cc1)NO [Compound I-65, (E)-3-(4-((N-cyclopentyl-2,3,4,5-tetrafluorophenylsulfonamido)methyl)phenyl)-N-hydroxyacrylamide]",IC50,"MV-4-11; Homo sapiens, MV4-11, Table 5",2430 nM
same,IC50,MV-4-11; Table 5,1940 nM
same,IC50,HDAC6,150 to 200 nM
"O=C(/C=C/c1ccc(CN(c2ccccc2)S(=O)(=O)c2cc(F)c(F)c(F)c2F)cc1)NO [Compound I-66, (E)-N-hydroxy-3-(4-((2,3,4,5-tetrafluoro-N-phenylphenylsulfonamido)methyl)phenyl)acrylamide]",IC50,"MV-4-11; Homo sapiens, MV4-11, Table 5",840 nM
same,IC50,HDAC6,10 to 30 nM
O=C(/C=C/c1ccc(CN(Cc2ccccc2)S(=O)(=O)c2cc(F)c(F)c(F)c2F)cc1)NO [Compound I-67],IC50,"MV-4-11; Homo sapiens, MV4-11, Table 5",1140 nM
O=C(/C=C/c1ccc(CN(Cc2ccc(F)cc2)S(=O)(=O)c2cc(F)c(F)c(F)c2F)cc1)NO [Compound I-68],IC50,"MV-4-11; Homo sapiens, MV4-11, Table 5",800 nM
CN(C)c1ccc(CN(Cc2ccc(/C=C/C(=O)NO)cc2)S(=O)(=O)c2cc(F)c(F)c(F)c2F)cc1 [Compound I-69],IC50,"MV-4-11; Homo sapiens, MV4-11, Table 5",1600 nM
same,IC50,MOLM-13; Table 5,1800 nM
"CC(C)N(Cc1ccc(CC(=O)NO)cc1)S(=O)(=O)c1cc(F)c(F)c(F)c1F [Compound I-70, N-hydroxy-2-(4-((2,3,4,5-tetrafluoro-N-isopropylphenylsulfonamido)methyl)phenyl)acetamide]",IC50,"MV-4-11; Homo sapiens, MV4-11, Table 5",2500 nM
same,IC50,HDAC6,100 to 150 nM
"O=C(Cc1ccc(CN(C2CC2)S(=O)(=O)c2cc(F)c(F)c(F)c2F)cc1)NO [Compound I-71, 2-(4-((N-cyclopropyl-2,3,4,5-tetrafluorophenylsulfonamido)methyl)phenyl)-N-hydroxyacetamide]",IC50,HDAC6,100 to 150 nM
O=C(Cc1ccc(CN(C2CCCCC2)S(=O)(=O)c2cc(F)c(F)c(F)c2F)cc1)NO [Compound I-72],IC50,"MV-4-11; Homo sapiens, MV4-11, Table 5",570 nM
Cc1ccc(CN(Cc2ccc(CC(=O)NO)cc2)S(=O)(=O)c2cc(F)c(F)c(F)c2F)cc1F [Compound I-73],IC50,"MV-4-11; Homo sapiens, MV4-11, Table 5",1090 nM
COc1cc(/C=C/C(=O)NO)ccc1CN(Cc1cccnc1)S(=O)(=O)c1cc(F)c(F)c(F)c1F [Compound I-78],IC50,"MV-4-11; Homo sapiens, MV4-11, Table 5",1300 nM
same,IC50,MOLM-13; Table 5,2900 nM
"O=C(/C=C/c1ccc(CNC(=O)c2c(F)c(F)c(F)c(F)c2F)cc1)NO [Compound I-81, (E)-2,3,4,5,6-pentafluoro-N-(4-(3-(hydroxyamino)-3-oxoprop-1-en-1-yl)benzyl)benzamide]",IC50,HDAC6,10 to 30 nM
"O=C(/C=C/c1ccc(CN(C(=O)c2c(F)c(F)c(F)c(F)c2F)C2CC2)cc1)NO [Compound I-83, (E)-N-cyclopropyl-2,3,4,5,6-pentafluoro-N-(4-(3-(hydroxyamino)-3-oxoprop-1-en-1-yl)benzyl)benzamide]",IC50,"MV-4-11; Homo sapiens, MV4-11, Table 5",750 nM
O=C(CCCCCCC(=O)Nc1ccccc1)NO [Vorinostat],half-life,[1],1.98 h
same,Remaining Percentage (%) 0 min,[1],100%
same,Remaining Percentage (%) 15 min,[1],98.6%
same,Remaining Percentage (%) 30 min,[1],89.0%
same,Remaining Percentage (%) 45 min,[1],74.9%
same,Remaining Percentage (%) 60 min,[1],68.4%
same,Remaining Percentage (%) 120 min,[1],52.1%

# From patent US20220169598A1, “HALOGENATED PHENYLSULFONAMIDE HYDROXAMIC ACID COMPOUNDS, COMPOSITIONS AND USES THEREOF AS SELECTIVE HDAC6 INHIBITORS” (2681603 ONTARIO INC., priority 2019, published 2022)
